Data on 23 compounds can be found in patent publication US3943256A (priority 1974, dated 1976).

Data set [1] has as its system mouse. The arrangement: species or system male CF-1 mice; unit not given here. The settings on record: in vivo.
Data set [2] deals with flurothyl induced convulsions. The settings on record: in vivo; cited from earlier work.
The subject of data set [3] is dogs. As to conditions: dog, in vivo.
The test system of data set [4] is mouse. The settings on record: in vivo.
Data set [5] concerns mouse. The arrangement: species or system male CF-1 mice. As to conditions: in vivo.
The conditions of data set [6]: in vivo; cited from earlier work.
Data set [7] has as its system mouse. The settings on record: in vivo; cited from earlier work.
The subject of data set [8] is dogs. The settings on record: dog, in vivo; cited from earlier work.

Entries after “also recorded” stand apart in the source; their conditions may differ. Where two headings read alike, the source gives them in different places. Where only a bound is given, the exact number is not on record here.

Take `COC(C(F)(F)F)C(F)(F)F` [XXI]: the “MOUSE AC50” value in the data set on mouse [1] is listed as 2.2. Besides, in data set [2], the “antagonism to flurothyl induced convulsions” value is given as “ANTAGONIST”. Besides, in the data set on dogs [3], the “convulsant effect in dogs” value is “NON[…] DOGS”.

As to `COC(F)(F)C(F)(F)C(F)(F)F` [XVII], the cause of death result in the data set with mouse [4] is “DEATH DUE TO ANOXIA”.

With `FCOC(C(F)F)C(F)(F)F` (stereo not drawn) [XVI], in the data set on mouse [1], the “MOUSE AC50” value worked out at 0.84.

With `FC(F)OCC(F)(F)C(F)F` [I, Difluoromethyl 2,2,3,3-tetrafluoropropyl ether], in the data set with mouse [5], the “MOUSE […]., VOL. %” value amounted to 1.0 VOL. % and the “[…] (type of convulsions)” value was “CLONIC CONVULSIONS”.

With `FC(F)OC(F)(C(F)F)C(F)F` [IV, Difluoromethyl 1,1,2,3,3-pentafluoro-2-propyl ether], the “convulsant effect in dogs” value with dogs [3] is recorded as “OPISTHOTONOID”. Besides, in the data set with mouse [5], the “MOUSE […]., VOL. %” value was 1.2 VOL. % and the “[…] (type of convulsions)” value was “C[…] SEDATION”.

Take `FC(F)OC(F)C(F)(F)C(F)(F)F` (stereo not drawn) [IX]: in the data set on mouse [1], the “MOUSE AC50” value was 4.3.

On to `FC(F)OC(C(F)(F)F)C(F)(F)F` [X], for which, in the data set with mouse [1], the “MOUSE AC50” value is recorded as 2.5. For the same compound, the “convulsant effect in dogs” value in the data set on dogs [3] is “NON[…] DOGS”.

For `FC(F)C(F)(F)COC(F)(F)F` [VI], in data set [6], the convulsions and death result is “VIOLENT C[…] DEATH”; the “time to violent convulsions and death” value is 30 to 120 s. Also, in the data set with mouse [5], the “MOUSE […]., VOL. %” value is ≤ 0.5 VOL. %.

With `COC(C(F)F)C(F)F` [XXIII], the “MOUSE AC50” value with mouse [1] is on record as 1.4.

Take `FC(F)OC(C(F)F)C(F)(F)F` (stereo not drawn) [XI]: the “MOUSE AC50” value in the data set with mouse [1] came out at 0.84.

With `FC(F)(F)COCC(F)(F)F` [VII, flurothyl], in the data set with mouse [7], the “MOUSE […]., VOL. %” value is reported as ≤ 0.25 VOL. %. Also, in the data set with mouse [5], the “[…] (type of convulsions)” value was “CLONIC AND TONIC CONVULSIONS”; the “time to clonic and tonic convulsions” value is 30 s.

Regarding `COCC(F)(F)C(F)F` [XX], in the data set with mouse [1], the “MOUSE AC50” value is given as 2.5.

Regarding `FCOC(F)(C(F)F)C(F)(F)F` (stereo not drawn) [XIV], the “MOUSE AC50” value with mouse [1] stood at 2.5. Also, in the data set on dogs [3], the “convulsant effect in dogs” value is “NON[…] DOGS”.

As for `COC(C(F)F)C(F)(F)F` (stereo not drawn) [XXII], the “MOUSE AC50” value in the data set with mouse [1] amounted to 1.5.

`FCOCC(F)(F)C(F)(F)F` [V, Fluoromehtyl 2,2,3,3,3-pentafluoropropyl ether]: in the data set with mouse [5], the “MOUSE […]., VOL. %” value is listed as 1.5 VOL. % and the “[…] (type of convulsions)” value is reported as “METRAZOLE-LIKE CONVULSIONS”.

As for `FCOC(C(F)(F)F)C(F)(F)F` [XV], the “MOUSE AC50” value in the data set on mouse [1] worked out at 1.4. The “convulsant effect in dogs” value with dogs [3] is “NON[…] DOGS”.

Consider `FC(F)OCC(F)(F)C(F)(F)F` [II, Difluoromethyl 2,2,3,3,3-pentafluoropropyl ether], for which, in the data set on mouse [5], the “MOUSE […]., VOL. %” value was determined as 1.4 VOL. % and the “[…] (type of convulsions)” value is listed as “CLONIC AND TONIC CONVULSIONS, CATALEPSY”.

With `COC(F)(F)C(F)C(F)(F)F` (stereo not drawn) [XVIII, methyl 1,1,2,3,3,3-hexafluoropropyl ether], the “MOUSE AC50” value in the data set with mouse [1] was found to be 3.9.

As to `FC(F)OC(F)C(F)(F)C(F)F` (stereo not drawn) [VIII], the “MOUSE AC50” value in the data set on mouse [1] came out at 0.61. Further, in the data set with dogs [3], the “convulsant effect in dogs” value is “NON[…] DOGS”.

For `FC(F)OC(C(F)F)C(F)F` [XII], in the data set with mouse [1], the “MOUSE AC50” value is recorded as 0.64.

Regarding `FC(F)OC(F)(F)C(F)C(F)(F)F` (stereo not drawn) [III, Difluoromethyl 1,1,2,3,3,3-hexafluoropropyl ether], the “MOUSE […]., VOL. %” value in the data set with mouse [5] was determined as 2.0 VOL. %.

As for `COCC(F)(F)C(F)(F)F` [XIX, methyl 2,2,3,3,3-pentafluoropropyl ether], in the data set with mouse [1], the “MOUSE AC50” value was determined as 11. The effect in dogs entry in the data set with dogs [8] is “EXTENSOR RIGIDITY OF HIND LEGS; also recorded: TREMORS”.

With `FCOC(F)(F)C(F)C(F)(F)F` (stereo not drawn) [XIII], the “MOUSE AC50” value with mouse [1] is 2.1.
